Measured values: PMC7968329, “Triazoloacridone C-1305 impairs XBP1 splicing by acting as a potential IRE1α endoribonuclease inhibitor” (Cellular & Molecular Biology Letters, 2021)

Biological target: T1, IRE1α (Homo sapiens, UniProt O75460)
T1 construct: gene ERN1
Assay: ADP-Glo luminescent kinase assay with purified IRE1
Assay type: biochemical

T1 sequence (O75460 19-977): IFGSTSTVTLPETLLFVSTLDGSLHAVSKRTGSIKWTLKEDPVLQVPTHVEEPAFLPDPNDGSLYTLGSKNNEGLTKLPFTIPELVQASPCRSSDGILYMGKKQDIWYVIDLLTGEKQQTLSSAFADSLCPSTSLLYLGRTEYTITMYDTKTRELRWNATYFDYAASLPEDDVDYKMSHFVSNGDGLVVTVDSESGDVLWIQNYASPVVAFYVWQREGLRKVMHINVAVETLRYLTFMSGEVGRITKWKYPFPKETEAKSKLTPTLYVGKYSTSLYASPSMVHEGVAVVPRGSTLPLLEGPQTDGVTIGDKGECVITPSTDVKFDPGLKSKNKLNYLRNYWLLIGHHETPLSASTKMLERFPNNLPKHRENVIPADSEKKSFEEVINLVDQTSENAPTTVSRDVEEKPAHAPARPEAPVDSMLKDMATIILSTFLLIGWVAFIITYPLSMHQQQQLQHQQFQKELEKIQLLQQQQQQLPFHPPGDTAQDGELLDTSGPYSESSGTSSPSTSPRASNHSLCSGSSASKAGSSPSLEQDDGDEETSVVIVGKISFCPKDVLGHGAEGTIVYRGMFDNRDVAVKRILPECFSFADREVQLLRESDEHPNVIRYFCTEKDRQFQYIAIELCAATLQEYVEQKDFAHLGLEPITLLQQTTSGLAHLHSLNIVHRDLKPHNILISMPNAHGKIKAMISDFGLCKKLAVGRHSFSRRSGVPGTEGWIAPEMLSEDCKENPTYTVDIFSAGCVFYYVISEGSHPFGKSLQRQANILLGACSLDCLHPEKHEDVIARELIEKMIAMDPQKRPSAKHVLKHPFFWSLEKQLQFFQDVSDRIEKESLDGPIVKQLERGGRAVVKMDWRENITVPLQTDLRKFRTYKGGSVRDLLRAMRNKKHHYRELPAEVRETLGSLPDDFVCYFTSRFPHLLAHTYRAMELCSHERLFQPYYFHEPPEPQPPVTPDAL

Cc1cc(=O)oc2c(C=O)c(O)ccc12 [4µ8C, 7-Hydroxy-4-methyl-2-oxo-2H-chromene-8-carbaldehyde]
IC50: 31.2 µM
